Reference: ChEMBL document CHEMBL1144775, “Secondary metabolites from three Florida sponges with antidepressant activity” (J Nat Prod, 2008)
The source made the active and inactive calls. The rule behind the calls is not given here.

Assays:
Mus musculus [1] = assay: Antidepressant like activity in ip dosed Swiss Webster mouse assessed as reduction of immobility time by forced-swim test; assay type: functional, organism-based
Mus musculus [2] = assay: Antidepressant like activity in Swiss Webster mouse assessed as reduction of immobility time at 20 mg/kg, ip after 30 mins by forced-swim test; assay type: functional, organism-based; parameters: dose 20 mg/kg
Gallus gallus [3] = assay: Anxiolytic activity in Cockerels assessed as attenuation separation distress vocalization rate during first 5 mins in anxiety phase at 30 mg/kg, ip; assay type: functional, organism-based; parameters: dose 30 mg/kg
Gallus gallus [4] = assay: Antidepressant activity in Cockerels assessed as attenuation separation distress vocalization rate in final 30 mins of depression phase at 30 mg/kg, ip; assay type: functional, organism-based; parameters: dose 30 mg/kg
Mus musculus [5] = organism: Mus musculus; assay: Sedative effect in Swiss Webster mouse assessed as locomotor activity; assay type: organism-based; conditions: in vivo

With `C=C1CCC[C@H]2[C@](C)(CC3=C(O)C(=O)C=C(OC)C3=O)[C@@H](C)CC[C@]12C` the Activity (Mus musculus [1]) was “inactive”.
In the case of `CN1C(=N)N(C)/C(=C/c2c[nH]c3ccccc23)C1=O`, the Activity (Mus musculus [1]) is reported as “inactive”.
With `CN(C)CCc1c[nH]c2cc(Br)c(Br)cc12` the Activity (Mus musculus [2]) was “Active”, the Activity (Gallus gallus [3]) was “Active” and the Activity (Gallus gallus [4]) was “Active”.
With `CN(C)CCc1c[nH]c2ccc(Br)cc12` the Activity (Mus musculus [1]) was “inactive” and the Activity (Mus musculus [5]) was “Active”.
